Calls of active or inactive are those of the source. The rule behind the calls is not given here.
Test: modifiers of cytoskeleton assembly, confirmation, imaging, high-content imaging, retest and dose response (AID 1249);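 note: compound exposure lasted 24 h before fixation; plate controls were untreated cells for no effect and reference compound treated cells for full effect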
Settings: cell-based imaging, cytoskeleton assembly phenotype, high content; at 2 µM; active compounds read high

In the case of `COc1ccc2c(c1)CCc1c(C(=O)N3CC4(C)CC3CC(C)(C)C4)noc1-2` (stereo not given), the inhibition is reported as 4.4% (inactive).

With `CC(=O)Cn1c(N2CCC(Cc3ccccc3)CC2)nc2c1c(=O)[nH]c(=O)n2C` the inhibition was -5.3% (inactive).

With `COc1ccc(-c2cc3ccccc3oc2=O)cc1NC(=O)c1ccc([N+](=O)[O-])o1` the inhibition was -8.3% (inactive).

With `CC(=O)c1cccc(S(=O)(=O)N2CCC(n3nnc4cc(F)ccc43)CC2)c1` the inhibition was 6.4% (inactive).

In the case of `CCN1CCC2(CC1)C(C#N)=C(N)Oc1c2sc2nc(C)cc(C)c12`, the inhibition is reported as -0.7% (inactive).

In the case of `Cc1oc(-c2ccc(Cl)cc2)cc1-c1nn2c(-c3ccoc3C)nnc2s1`, the inhibition is reported as 0.3% (inactive).

With `Cc1ccc(C)c(NC(=O)c2nnn(Cc3ccccc3)c2N)c1` the inhibition was -0.1% (inactive).

For `CCNC(=O)CCn1nc(-c2ccc(Cl)cc2)c2ccccc2c1=O`, the inhibition was -0.2% (inactive).

In the case of `CCCc1[nH]nc2c1C(c1cccnc1)C(C#N)=C(N)O2` (stereo not given), the inhibition is reported as -4.7% (inactive).

In the case of `OCCCCNc1cccc2ccccc12`, the inhibition is reported as -7.2% (inactive).

With `COc1ccc(C(C)(C)C)cc1S(=O)(=O)N1CCN(C)CC1` the inhibition was -1.6% (inactive).

For `C(=N\Nc1nc2ccccc2s1)/c1cccs1`, the inhibition was -5.8% (inactive).

With `COc1cc(NC(=O)c2ccc(COCC(F)(F)F)o2)cc(OC)c1OC` the inhibition was 5.2% (inactive).

In the case of `COc1ccccc1/C=N/NC(=O)C(NC(=O)c1ccccc1)=C(C)C`, the inhibition is reported as 5.8% (inactive).

With `O=C(OCn1ncc(Br)c(Br)c1=O)c1ccc(F)cc1` the inhibition was 10.9% (inactive).

With `Cc1cccc(OCC(=O)Nc2cc(C)ccc2O)c1` the inhibition was -8.8% (inactive).

With `Cc1cc(NC(=O)C(=O)NCCN2CCN(C(=O)c3cccs3)CC2)ccc1Br` the inhibition was 0.6% (inactive).

In the case of `O=C(C1CCC1)N1CCc2cc(S(=O)(=O)Nc3ccc4c(c3)OCCO4)ccc21`, the inhibition is reported as 3.8% (inactive).

In the case of `COc1ccccc1-n1cnc2cc(C(=O)NCC3CCCO3)ccc21` (stereo not given), the inhibition is reported as 13.3% (inactive).

With `CCOc1ccccc1N1C(=O)NC(=O)C(CCc2ccncc2)(CCc2ccncc2)C1=O` the inhibition was -4.8% (inactive).

In the case of `CCOc1cc(-c2conc2N)cc(OCC)c1OCC`, the inhibition is reported as 10.2% (inactive).

In the case of `COc1ccc(CN2CCCCC2C(=O)Nc2ccc(OC)c(OCC(C)C)c2)cc1OC` (stereo not given), the inhibition is reported as -2.9% (inactive).

In the case of `COc1ccc(CSc2nc3ccccc3[nH]2)cc1`, the inhibition is reported as 9.9% (inactive).

With `CCOC(=O)c1c(C)c(C(=O)O)n(C)c1C` the inhibition was -14.7% (inactive).

For `Oc1ccc(N2CCN(c3ncnc4sc5c(c34)CCC5)CC2)cc1`, the inhibition was -5.1% (inactive).

With `Cc1cccnc1Nc1nc(-c2ccccn2)cs1` the inhibition was -5.7% (inactive).

In the case of `CC1=C(C(=O)OCCOC(C)C)C(c2cccnc2)C2=C(CCCC2=O)N1` (stereo not given), the inhibition is reported as -18.2% (inactive).

With `CCNCC(O)COCC(O)CNCC` (stereo not given) the inhibition was 5.1% (inactive).

For `O=C(NC(NC1CCS(=O)(=O)C1)C(=O)c1cccs1)c1ccccc1` (stereo not given), the inhibition was 6.8% (inactive).

With `Cc1ccc(C(=O)CSc2nnc(COc3ccc(C#N)cc3)n2-c2ccccc2)cc1` the inhibition was -3% (inactive).

With `COc1cc2c(cc1NS(=O)(=O)N1CCCC1)oc1ccccc12` the inhibition was 2.5% (inactive).

For `O=C(NC(Cc1c[nH]c2ccccc12)C(=O)O)c1ccco1` (stereo not given), the inhibition was -3% (inactive).

In the case of `Cn1nc(C(F)(F)F)c(C(=O)Nc2ccc(F)cc2F)c1Sc1ccc(C(F)(F)F)cc1`, the inhibition is reported as 13.2% (inactive).

For `CCOc1ccc(NC(=O)C2CCN(C(=O)NC3CCCCC3)CC2)cc1`, the inhibition was -1.9% (inactive).

For `C/C(=N\Nc1nc2c(s1)CCCC2)c1ccccc1`, the inhibition was -2.4% (inactive).

For `CC(C)(C)NC(=O)CSc1nsc(SCC(=O)NC(C)(C)C)c1C#N`, the inhibition was -0.7% (inactive).

For `Cc1ccc(-c2cc(C(=O)NCc3ccccn3)no2)cc1`, the inhibition was 3.6% (inactive).

With `C=CCn1c(SCC(=O)Nc2ccc(C(=O)OCC)cc2)nnc1-c1sc(N)nc1C` the inhibition was -0.9% (inactive).

For `O=C(COc1ncnc2sccc12)Nc1ccc2c(c1)OCCO2`, the inhibition was 1.1% (inactive).

With `CSc1nc2nccc(-c3ccc(Oc4ccccc4)cc3)n2n1` the inhibition was -15.1% (inactive).

Source: PubChem BioAssay AID1249 (Columbia University Molecular Screening Center, 2008)
